Test results reported in US9981897B2, “Ethers of bis(hydroxymethyl)cyclohexanes” (BASF SE, priority 2011, dated 2018).

Legend:
[1] = dissolution / solvent properties for ingredients of fragrance-comprising preparations; assay type: physicochemical; conditions: for customary ingredients in fragrance-comprising preparations
Excerpt: The term “exceptional dissolution properties” refers to the solubility and also the solubilization in the perfumery application, i.e. both in the perfume oil itself, and also in the application matrix, such as soaps, creams, deodorants and others.
“Exceptional” dissolution properties are present for example if virtually all customary substances which can be used in such formulations are soluble in the solvent. “Good” dissolution properties are present if virtually all important substances which are used in such formulations are soluble in this solvent. “Moderate” dissolution properties are present if only a small fraction of the important substances is soluble or dispersible. Such substances, their importance and also the testing of the solubility in solvents are known to the person skilled in the art.

[2] = stability of the ether groups; assay type: physicochemical

dissolution properties [1]	stability of the ether groups [2]	SMILES	toxicological properties (toxicological assessment)
exceptional	–	CCOC[C@H]1CC[C@H](COCC)CC1 [Compound I-trans, Trans-1,4-Cyclohexanedimethanol Diethyl Ether]	–
–	very high	CCOCC1CCC(COCC)CC1 (stereo not drawn) [Compound I, cyclohexanedimethanol diethyl ether]	toxicologically acceptable
